Test results from patent US20150051202A1, “TRIAZOLOPYRAZINE DERIVATIVES” (Merck Patent GmbH, priority 2012, published 2015).
Marks after values point to notes of the source that are not given here.

Assays:
[1] = tested on: tumors over-expressing IDO; settings: several tumor models, monotherapy; cited from earlier work
[2] = tested on: 3 LL lung carcinoma; settings: mice; Rodriguez 2004; cited from earlier work
[3] = target: GCN2 (Homo sapiens, UniProt Q9P2K8); assay: GCN2 enzyme assay (TR-FRET Lanthascreen, GFP-eIF2alpha substrate); format: biochemical
Outline: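 GCN2 (30 nM) incubated at room temperature with 10 μM ATP and 80 nM GFP-eIF2alpha in 50 mM Hepes pH 7.0, 10 mM MgCl2, 5 mM MnCl2, 2 mM DTT, 0.1% BSA, 1% DMSO. Reaction stopped with EDTA; phospho-eIF2alpha detected by antibody TR-FRET, excitation 340 nm.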

[4] = target: T1, SYK (Homo sapiens, UniProt P43405); assay: SYK enzyme assay (Flash plate assay / Caliper mobility shift assay); format: biochemical; settings: for SYK (enzyme assay) % at 3 μM: 100% corresponds to zero effect, −50% corresponds to IC50
T1 construct: purchased BPS Bioscience, CA, USA
Outline: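 Flashplate: 2.5 nM SYK, 400 nM biotinylated peptide and 10 μM ATP with 33P-ATP, pH 7.5, 1 h at 30 °C, EDTA stop, radioactivity read, background with 0.1 μM staurosporine. Caliper: 90 min at 25 °C in HEPES pH 7.5, 1 mM MgCl2, 1 mM DTT, mobility-shift percent conversion of fluorescent peptide. IC50 from dose-response in both.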

[5] = tested on: RA; settings: RA Phase II studies in humans; cited from earlier work
[6] = tested on: murine model of RA; settings: cited from earlier work

Sequence of GCN2 (Q9P2K8 whole entry): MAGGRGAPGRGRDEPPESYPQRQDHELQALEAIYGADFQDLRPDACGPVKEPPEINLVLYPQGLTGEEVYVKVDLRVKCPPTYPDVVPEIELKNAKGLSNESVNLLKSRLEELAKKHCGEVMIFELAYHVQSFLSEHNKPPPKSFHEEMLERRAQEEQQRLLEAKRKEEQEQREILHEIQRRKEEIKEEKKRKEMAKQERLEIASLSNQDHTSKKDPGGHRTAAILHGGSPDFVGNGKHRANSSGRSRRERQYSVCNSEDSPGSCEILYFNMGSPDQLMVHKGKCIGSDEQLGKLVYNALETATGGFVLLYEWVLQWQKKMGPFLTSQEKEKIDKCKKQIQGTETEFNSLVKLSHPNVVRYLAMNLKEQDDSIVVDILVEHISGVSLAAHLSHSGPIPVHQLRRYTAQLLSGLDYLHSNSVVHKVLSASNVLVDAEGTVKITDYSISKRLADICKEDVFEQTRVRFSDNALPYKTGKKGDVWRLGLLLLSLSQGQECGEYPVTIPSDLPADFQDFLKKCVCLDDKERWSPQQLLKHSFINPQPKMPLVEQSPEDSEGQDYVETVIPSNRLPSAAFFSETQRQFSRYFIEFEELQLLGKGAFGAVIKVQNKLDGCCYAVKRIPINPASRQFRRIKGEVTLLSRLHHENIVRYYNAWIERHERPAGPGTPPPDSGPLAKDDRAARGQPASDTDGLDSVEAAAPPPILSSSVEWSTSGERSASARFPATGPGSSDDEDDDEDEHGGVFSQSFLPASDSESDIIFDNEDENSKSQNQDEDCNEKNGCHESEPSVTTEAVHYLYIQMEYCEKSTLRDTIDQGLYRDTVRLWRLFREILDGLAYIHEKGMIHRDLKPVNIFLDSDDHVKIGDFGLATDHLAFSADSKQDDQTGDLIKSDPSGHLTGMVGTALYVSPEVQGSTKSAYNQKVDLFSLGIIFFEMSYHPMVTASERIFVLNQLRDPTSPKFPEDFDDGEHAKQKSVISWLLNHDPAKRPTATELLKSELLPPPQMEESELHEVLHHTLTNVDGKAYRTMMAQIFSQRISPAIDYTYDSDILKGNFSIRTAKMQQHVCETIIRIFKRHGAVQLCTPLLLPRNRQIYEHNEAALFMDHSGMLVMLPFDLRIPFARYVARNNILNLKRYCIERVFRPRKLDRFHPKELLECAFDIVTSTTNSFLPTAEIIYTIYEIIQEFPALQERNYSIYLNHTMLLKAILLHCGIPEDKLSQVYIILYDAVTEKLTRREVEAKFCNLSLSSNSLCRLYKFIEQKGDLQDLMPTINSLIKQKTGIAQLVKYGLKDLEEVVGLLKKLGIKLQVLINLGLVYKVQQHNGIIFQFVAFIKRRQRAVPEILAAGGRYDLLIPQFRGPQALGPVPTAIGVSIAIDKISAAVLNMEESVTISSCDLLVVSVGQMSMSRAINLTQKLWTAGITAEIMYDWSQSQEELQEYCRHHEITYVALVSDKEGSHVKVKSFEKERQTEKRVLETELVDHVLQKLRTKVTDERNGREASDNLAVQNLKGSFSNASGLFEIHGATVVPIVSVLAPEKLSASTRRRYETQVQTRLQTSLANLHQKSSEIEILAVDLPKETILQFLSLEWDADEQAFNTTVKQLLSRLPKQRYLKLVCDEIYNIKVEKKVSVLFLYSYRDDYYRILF

SMILES	IC50 [3]	IC50 [4]	SYK (enzyme assay) % at 3 μM [4]	other results
Cn1cc(C[C@H](N)C(=O)O)c2ccccc21 [Compound 1MT, 1 methyl-tryptophan]	–	–	–	tumor regression [1]: unable to elicit tumor regression
N=C(NO)NCC[C@H](N)C(=O)O [N-hydroxy-nor-L-Arg]	–	–	–	growth of s.c. 3 LL lung carcinoma [2]: blocks growth
CN(C)Cc1nc2cc(Nc3nc4cncc(-c5cnc6ccccc6c5)n4n3)ccc2[nH]1 [Compound A10, (2-dimethylaminomethyl-1H-benzoimidazol-5-yl)-(5-quinolin-3-yl-[1,2,4]triazolo[1,5-a]pyrazin-2-yl)-amine]	< 1 µM	1 to 5 µM	–	–
COc1cc(Nc2ncc(F)c(Nc3ccc4c(n3)NC(=O)C(C)(C)O4)n2)cc(OC)c1OC [Compound R406]	–	–	–	efficacy (ACR scores) [5]: efficacy (ACR scores improvement); tolerability [5]: good tolerability; bone erosion [6]: significantly reduced; clinical scores [6]: significant improvement; serum cytokine concentrations [6]: significantly reduced
Cc1cc(Nc2nc3cncc(-c4cnn(C)c4)n3n2)ccc1C(=O)N1CCOCC1 [Compound A73, {2-methyl-4-[5-(1-methyl-1H-pyrazol-4-yl)-[1,2,4]triazolo[1,5-a]pyrazin-2-ylamino]-phenyl}-morpholin-4-yl-methanone]	< 1 µM	1 to 5 µM	–	–
c1ccc2ncc(-c3cncc4nc(Nc5ccc(N6CCOCC6)cc5)nn34)cc2c1 [Compound A32, (4-morpholin-4-yl-phenyl)-(5-quinolin-3-yl-[1,2,4]triazolo[1,5-a]pyrazin-2-yl)-amine]	1 to 5 µM	–	−35@3%	–
CN1CCN(c2ccc(Nc3nc4cncc(-c5cnn(CCN6CCOCC6)c5)n4n3)cc2)CC1 [Compound A48, [4-(4-methyl-piperazin-1-yl)-phenyl]-{5-[1-(2-morpholin-4-yl-ethyl)-1H-pyrazol-4-yl]-[1,2,4]triazolo[1,5-a]pyrazin-2-yl}-amine]	< 1 µM	5 to 10 µM	–	–
Cn1ncc2cc(-c3cncc4nc(Nc5ccc(S(C)(=O)=O)cc5)nn34)ccc21 [Compound A1, (4-methanesulfonyl-phenyl)-[5-(1-methyl-1H-indazol-5-yl)-[1,2,4]triazolo[1,5-a]pyrazin-2-yl]-amine]	5 to 10 µM	–	−18@3 * %	–
CC(C)(C#N)c1ccc(-c2cncc3nc(Nc4ccc(N5CCOCC5)cc4)nn23)cc1 [Compound A34, 2-Methyl-2-{4-[2-(4-morpholin-4-yl-phenylamino)-[1,2,4]triazolo[1,5-a]pyrazin-5-yl]-phenyl}-propionitrile]	1 to 5 µM	1 to 5 µM	–	–
c1cncc(Nc2nc3cnc(-c4cccnc4)cn3n2)c1 [Compound A25, pyridin-3-yl-(6-pyridin-3-yl-[1,2,4]triazolo[1,5-a]pyrazin-2-yl]-amine]	1 to 5 µM	–	−8@3%	–
